From PubChem BioAssay (NCI)
Where “and” joins values, the source holds several entries; their conditions need not be identical. Equal entries are not always repeated.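 Growth conditions: 96-well plates. Treatment: test compound, 48 hours, 5 concentrations. Analysis: linear interpolation between bracketing concentrations; unreached endpoints set to highest concentration. GI50 = concentration required for 50% inhibition of growth. TGI marks complete inhibition of growth.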

tested on: SF-268 CNS; assay: NCI-60 cell line screen, 48 h

Row | Structure (SMILES) | TGI | GI50
1 | O=C(CCCn1ccnc1[N+](=O)[O-])NCCn1cncc1[N+](=O)[O-] | > 100 µM | –
2 | Cn1cc(C2=C(c3ccc4ccccc4c3)C(=O)NC2=O)c2ccccc21 | > 25 µM | > 25 µM
3 | O=C(OCc1ccc2cccc(O)c2n1)N1CCN(C(=O)c2cc3cc(F)ccc3[nH]2)CC1 | 3.04 µM | 1.45 µM
4 | C[As](C)SC1OC(CO)C(O)C1O (centres undefined) | 5.73 µM | 0.998 µM
5 | CCCCCCCCCC/C=C/CC(=O)SCCNC(=O)CCNC(=O)[C@@H](O)C(C)(C)COP(=O)(O)OP(=O)(O)OCC1OC(n2cnc3c(N)ncnc32)C(O)C1OP(=O)(O)O (some centres undefined) | > 10 µM | –
6 | Cn1c(=O)c2c(nc(Nc3cc(=O)[nH]c(=O)[nH]3)n2Cc2ccccc2)n(C)c1=O | > 100 µM | > 100 µM
7 | COc1ccc2c(c1)CCC1C2CC[C@@]2(C)C1CC1=CC(COC(C)=O)C3C(=O)c4ccccc4C(=O)C3C12 (some centres undefined) | > 100 µM | > 100 µM
8 | C=C(F)C(=O)N1CCN(c2nc(OC[C@@H]3CCCN3C)nc3c2CCN(c2cccc4cccc(Cl)c24)C3)C[C@@H]1CC#N | 3.37 µM | 1.37 µM
9 | Cc1c2cccnc2c(C)c2c1c1cc(CO)ccc1n2C | 15.1 µM | 2.29 µM
10 | CC/C(=C(/c1ccc(OCCN(C)C)cc1)c1ccc(OC(=O)CCCCC(=O)c2c(C)[nH]c(/C=C3\N=C(c4ccc[nH]4)C=C3OC)c2C)cc1)c1ccccc1 | 30 µM | 7.79 µM
11 | CC[C@]12C=CCN3CC[C@@]4(c5ccc(OC)cc5N(C)[C@H]4[C@@](O)(C(=O)OC)[C@@H]1OC(=O)CCC[P+](c1ccccc1)(c1ccccc1)c1ccccc1)[C@@H]32 | 6.84 µM and 2.65 µM | 0.933 µM and 0.455 µM
12 | CC(=O)OC1Oc2ccccc2-c2oc(=O)c(-c3cc(=O)oc4cc(O)ccc34)cc21 (centres undefined) | 80.3 µM | 26.2 µM
13 | CS(=O)(=O)N/N=C/CN1C(=O)c2ccccc2C1=O | > 100 µM | –
14 | Ic1ccc(Nc2nc3nonc3nc2Nc2ccc(I)cc2)cc1 | > 100 µM | 0.304 µM
15 | CC(C)(C)C(=O)OCOP(=O)(OCOC(=O)C(C)(C)C)C1CCCN(O)C1=O (centres undefined) | 20.2 µM | 0.441 µM
16 | COC(=O)C1=C(c2ccc3c(c2)OCO3)O[C@H](c2cc(OC)c(OC)c(OC)c2)[C@H]1COC(C)=O | > 100 µM | –

Row | Structure (SMILES) | TGI | GI50
17 | COc1ccc(OC)c(NC(=O)C(=O)NNC(=O)c2sc(NNC(C)=O)nc2C)c1 | 75.9 µM | –
18 | CCCCc1c(OC)cc(O)c2c1C(=O)c1[nH]c(C(=O)O)c(O)c(=O)c1C2=O | > 100 µM | –
19 | O=[N+]([O-])c1nccn1CC(O)c1ccc(F)cc1 (centres undefined) | > 100 µM | –
20 | O=C1c2ccccc2C2(Br)C(=O)c3ccccc3C12 (centres undefined) | > 100 µM | –
21 | CCCCOC(=O)C1C(c2ccc(Cl)cc2)NC(c2ccc(Cl)cc2)C(C(=O)OCCCC)S1(=O)=O (centres undefined) | > 100 µM | –
22 | CCOC(=O)Oc1c(OC)cc(C(=O)NC2CCc3cc(OC)c(OC)c(OC)c3-c3ccc(SC)c(=O)cc32)cc1OC (centres undefined) | 21.4 µM | 0.0174 µM
23 | CC(=O)Nc1ccc(C(=O)NN2C(=O)C(Cl)C2c2ccccc2)cc1 (centres undefined) | > 100 µM | –
24 | COC(=O)c1cc2c(cc1O)[C@@H](NC(C)=O)CCc1cc(OC)c(OC)c(OC)c1-2 | > 100 µM | 0.447 µM
25 | CSc1nc2c(nc(C)c(=O)n2C2OCC(OC(C)=O)C(OC(C)=O)C2OC(C)=O)c(=O)[nH]1 (centres undefined) | > 100 µM | –
26 | O=S(O)CCCCSSCC(O)C(O)CSSCCCCS(=O)O (centres undefined) | 32.1 µM and 57.9 µM | –
27 | COc1ccc(C2S/C(=C\c3ccccc3O)C(=O)N2NC(=O)Cc2ccccc2)cc1 (centres undefined) | > 100 µM | –
28 | CC1OC(n2cc(F)c(=O)[nH]c2=O)C=CC1O (centres undefined) | > 100 µM | –
29 | C/C(=C\CCc1ccoc1)CC/C=C(\C)CCCC1=CC(=O)OC1 | > 100 µM | 17.7 µM
30 | C=C(C=O)[C@@H]1C2OC(=O)C(=C)[C@@H]2CC(O)[C@@]1(C)CC (some centres undefined) | 71.4 µM | –
31 | C=C(CCCCC)CN1CCCC1[C@@](C)(O)CC(=O)OCC (some centres undefined) | > 100 µM | –
32 | O=C1c2ccccc2C(=O)C1(Cl)C1(S(=O)(=O)O)c2ccccc2-c2ccccc21 | > 100 µM | –

tested on: NCI-H460 lung; assay: NCI-60 cell line screen, 48 h

Row | Structure (SMILES) | TGI | GI50
33 | O=C(CCCn1ccnc1[N+](=O)[O-])NCCn1cncc1[N+](=O)[O-] | > 100 µM | –
34 | Cn1cc(C2=C(c3ccc4ccccc4c3)C(=O)NC2=O)c2ccccc21 | > 25 µM | > 25 µM
35 | O=C(OCc1ccc2cccc(O)c2n1)N1CCN(C(=O)c2cc3cc(F)ccc3[nH]2)CC1 | 3.64 µM | 1.34 µM
36 | C[As](C)SC1OC(CO)C(O)C1O (centres undefined) | 11.7 µM | 1.46 µM
37 | CCCCCCCCCC/C=C/CC(=O)SCCNC(=O)CCNC(=O)[C@@H](O)C(C)(C)COP(=O)(O)OP(=O)(O)OCC1OC(n2cnc3c(N)ncnc32)C(O)C1OP(=O)(O)O (some centres undefined) | > 10 µM | –
38 | Cn1c(=O)c2c(nc(Nc3cc(=O)[nH]c(=O)[nH]3)n2Cc2ccccc2)n(C)c1=O | > 100 µM | > 100 µM
39 | COc1ccc2c(c1)CCC1C2CC[C@@]2(C)C1CC1=CC(COC(C)=O)C3C(=O)c4ccccc4C(=O)C3C12 (some centres undefined) | > 100 µM | > 100 µM
40 | C=C(F)C(=O)N1CCN(c2nc(OC[C@@H]3CCCN3C)nc3c2CCN(c2cccc4cccc(Cl)c24)C3)C[C@@H]1CC#N | 2.38 µM | 1.05 µM
41 | Cc1c2cccnc2c(C)c2c1c1cc(CO)ccc1n2C | 6.12 µM | 1.23 µM
42 | CC/C(=C(/c1ccc(OCCN(C)C)cc1)c1ccc(OC(=O)CCCCC(=O)c2c(C)[nH]c(/C=C3\N=C(c4ccc[nH]4)C=C3OC)c2C)cc1)c1ccccc1 | 15.5 µM | 3.99 µM
43 | CC[C@]12C=CCN3CC[C@@]4(c5ccc(OC)cc5N(C)[C@H]4[C@@](O)(C(=O)OC)[C@@H]1OC(=O)CCC[P+](c1ccccc1)(c1ccccc1)c1ccccc1)[C@@H]32 | 5.82 µM and 11 µM | 1.38 µM and 1.31 µM
44 | CC(=O)OC1Oc2ccccc2-c2oc(=O)c(-c3cc(=O)oc4cc(O)ccc34)cc21 (centres undefined) | 73.7 µM | 21.5 µM
45 | CS(=O)(=O)N/N=C/CN1C(=O)c2ccccc2C1=O | > 100 µM | –
46 | Ic1ccc(Nc2nc3nonc3nc2Nc2ccc(I)cc2)cc1 | > 32 µM | 0.156 µM
47 | CC(C)(C)C(=O)OCOP(=O)(OCOC(=O)C(C)(C)C)C1CCCN(O)C1=O (centres undefined) | 12.9 µM | 0.561 µM
48 | COC(=O)C1=C(c2ccc3c(c2)OCO3)O[C@H](c2cc(OC)c(OC)c(OC)c2)[C@H]1COC(C)=O | > 100 µM | –

Row | Structure (SMILES) | TGI | GI50
49 | COc1ccc(OC)c(NC(=O)C(=O)NNC(=O)c2sc(NNC(C)=O)nc2C)c1 | > 100 µM | –
50 | CCCCc1c(OC)cc(O)c2c1C(=O)c1[nH]c(C(=O)O)c(O)c(=O)c1C2=O | > 100 µM | –
51 | O=[N+]([O-])c1nccn1CC(O)c1ccc(F)cc1 (centres undefined) | > 100 µM | –
52 | O=C1c2ccccc2C2(Br)C(=O)c3ccccc3C12 (centres undefined) | > 100 µM | –
53 | CCCCOC(=O)C1C(c2ccc(Cl)cc2)NC(c2ccc(Cl)cc2)C(C(=O)OCCCC)S1(=O)=O (centres undefined) | > 100 µM | –
54 | CCOC(=O)Oc1c(OC)cc(C(=O)NC2CCc3cc(OC)c(OC)c(OC)c3-c3ccc(SC)c(=O)cc32)cc1OC (centres undefined) | – | 0.016 µM
55 | CC(=O)Nc1ccc(C(=O)NN2C(=O)C(Cl)C2c2ccccc2)cc1 (centres undefined) | > 100 µM | –
56 | COC(=O)c1cc2c(cc1O)[C@@H](NC(C)=O)CCc1cc(OC)c(OC)c(OC)c1-2 | > 100 µM | 0.0296 µM
57 | CSc1nc2c(nc(C)c(=O)n2C2OCC(OC(C)=O)C(OC(C)=O)C2OC(C)=O)c(=O)[nH]1 (centres undefined) | > 100 µM | –
58 | O=S(O)CCCCSSCC(O)C(O)CSSCCCCS(=O)O (centres undefined) | > 100 µM | –
59 | COc1ccc(C2S/C(=C\c3ccccc3O)C(=O)N2NC(=O)Cc2ccccc2)cc1 (centres undefined) | > 100 µM | –
60 | CC1OC(n2cc(F)c(=O)[nH]c2=O)C=CC1O (centres undefined) | > 100 µM | –
61 | C/C(=C\CCc1ccoc1)CC/C=C(\C)CCCC1=CC(=O)OC1 | 27.8 µM | 5.21 µM
62 | C=C(C=O)[C@@H]1C2OC(=O)C(=C)[C@@H]2CC(O)[C@@]1(C)CC (some centres undefined) | 51.4 µM | –
63 | C=C(CCCCC)CN1CCCC1[C@@](C)(O)CC(=O)OCC (some centres undefined) | > 100 µM | –
64 | O=C1c2ccccc2C(=O)C1(Cl)C1(S(=O)(=O)O)c2ccccc2-c2ccccc21 | > 100 µM | –

tested on: U251 CNS; assay: NCI-60 cell line screen, 48 h

Row | Structure (SMILES) | TGI [µM] | GI50 [µM]
65 | O=C(CCCn1ccnc1[N+](=O)[O-])NCCn1cncc1[N+](=O)[O-] | > 100 | –
66 | Cn1cc(C2=C(c3ccc4ccccc4c3)C(=O)NC2=O)c2ccccc21 | > 25 | > 25
67 | O=C(OCc1ccc2cccc(O)c2n1)N1CCN(C(=O)c2cc3cc(F)ccc3[nH]2)CC1 | 2.74 | 1.41
68 | C[As](C)SC1OC(CO)C(O)C1O (centres undefined) | 3.2 | 0.709
69 | CCCCCCCCCC/C=C/CC(=O)SCCNC(=O)CCNC(=O)[C@@H](O)C(C)(C)COP(=O)(O)OP(=O)(O)OCC1OC(n2cnc3c(N)ncnc32)C(O)C1OP(=O)(O)O (some centres undefined) | > 10 | –
70 | Cn1c(=O)c2c(nc(Nc3cc(=O)[nH]c(=O)[nH]3)n2Cc2ccccc2)n(C)c1=O | > 100 | > 100
71 | COc1ccc2c(c1)CCC1C2CC[C@@]2(C)C1CC1=CC(COC(C)=O)C3C(=O)c4ccccc4C(=O)C3C12 (some centres undefined) | > 100 | > 100
72 | C=C(F)C(=O)N1CCN(c2nc(OC[C@@H]3CCCN3C)nc3c2CCN(c2cccc4cccc(Cl)c24)C3)C[C@@H]1CC#N | 2.21 | 1.02
73 | Cc1c2cccnc2c(C)c2c1c1cc(CO)ccc1n2C | 11 | 1.93
